Laboratory results: ChEMBL document CHEMBL1127385, “Synthesis and diuretic activity of alkyl- and arylguanidine analogs of N,N'-dicyclohexyl-4-morpholinecarboxamidine in rats and dogs” (J Med Chem, 1994)
Values joined by “and” are separate entries in the source; they are usually repeats but may differ in a detail not shown here. Equal values may be shown once.

Assays:
[1] = system: Canis familiaris; experiment: Total electrolytic excretion of potassium in urine of dogs after intravenous administration of 30.3 uM/Kg of drug; assay type: ADME, organism-based, Canis lupus familiaris; conditions: dog, in vivo
[2] = system: Canis familiaris; experiment: Total electrolytic excretion of potassium in urine of dogs after intravenous administration of 9.09 uM/Kg of drug; assay type: ADME, organism-based, Canis lupus familiaris; conditions: dog, in vivo
[3] = system: Rattus norvegicus; experiment: Total electrolytic excretion of chlorine in urine of rats after peroral administration of 341 uM/Kg of drug; assay type: ADME, organism-based; conditions: in vivo, po
[4] = system: Canis familiaris; experiment: Total electrolytic excretion of sodium in urine of dogs after intravenous administration of 9.09 uM/Kg of drug; assay type: ADME, organism-based, Canis lupus familiaris; conditions: dog, in vivo
[5] = system: Canis familiaris; experiment: Total electrolytic excretion of sodium in urine of dogs after peroral administration of 102 uM/Kg of drug; assay type: ADME, organism-based, Canis lupus familiaris; conditions: dog, in vivo, po
[6] = system: Canis familiaris; experiment: Total electrolytic excretion of sodium in urine of dogs after peroral administration of 68.1 uM/Kg of drug; assay type: ADME, organism-based, Canis lupus familiaris; conditions: dog, in vivo, po
[7] = system: Rattus norvegicus; experiment: Total electrolytic excretion of sodium in urine of rats after peroral administration of 102 uM/Kg of drug; assay type: ADME, organism-based; conditions: in vivo, po
[8] = system: Rattus norvegicus; experiment: Total electrolytic excretion of potassium in urine of rats after peroral administration of 341 uM/Kg of drug; assay type: ADME, organism-based; conditions: in vivo, po
[9] = system: Rattus norvegicus; experiment: Total electrolytic excretion of potassium in urine of rats after peroral administration of 50.8 uM/Kg of drug; assay type: ADME, organism-based; conditions: in vivo, po
[10] = system: Rattus norvegicus; experiment: Total electrolytic excretion of potassium in urine of rats after peroral administration of 68.1 uM/Kg of drug; assay type: ADME, organism-based; conditions: in vivo, po
[11] = system: Canis familiaris; experiment: Total electrolytic excretion of chlorine in urine of dogs after peroral administration of 50.8 uM/Kg of drug; assay type: ADME, organism-based, Canis lupus familiaris; conditions: dog, in vivo, po
[12] = system: Canis familiaris; experiment: Total electrolytic excretion of chlorine in urine of dogs after peroral administration of 68.1 uM/Kg of drug; assay type: ADME, organism-based, Canis lupus familiaris; conditions: dog, in vivo, po
[13] = system: Canis familiaris; experiment: Total electrolytic excretion of chlorine in urine of dogs after intravenous administration of 9.09 uM/Kg of drug; assay type: ADME, organism-based, Canis lupus familiaris; conditions: dog, in vivo
[14] = system: Canis familiaris; experiment: Total electrolytic excretion of chlorine in urine of dogs after peroral administration of 34.1 uM/Kg of drug; assay type: ADME, organism-based, Canis lupus familiaris; conditions: dog, in vivo, po
[15] = system: Canis familiaris; experiment: Total electrolytic excretion of sodium in urine of dogs after intravenous administration of 30.3 uM/Kg of drug; assay type: ADME, organism-based, Canis lupus familiaris; conditions: dog, in vivo
[16] = system: Canis familiaris; experiment: Tested for the diuretic activity by measuring the urinary volume after peroral administering 34.1 uM/Kg of drug in dogs; assay type: ADME, organism-based, Canis lupus familiaris, Urine; conditions: dog, in vivo, po
[17] = system: Rattus norvegicus; experiment: Tested for the diuretic activity by measuring the urinary volume after peroral administering 34.1 uM/Kg of drug in rats; assay type: ADME, organism-based, Urine; conditions: in vivo, po
[18] = system: Canis familiaris; experiment: Tested for the diuretic activity by measuring the urinary volume after peroral administering 50.8 uM/Kg of drug in dogs; assay type: ADME, organism-based, Canis lupus familiaris, Urine; conditions: dog, in vivo, po
[19] = system: Rattus norvegicus; experiment: Total electrolytic excretion of sodium in urine of rats after peroral administration of 341 uM/Kg of drug; assay type: ADME, organism-based; conditions: in vivo, po
[20] = system: Canis familiaris; experiment: Tested for the diuretic activity by measuring the urinary volume after intravenous administering 9.09 uM/Kg of drug in dogs; assay type: ADME, organism-based, Canis lupus familiaris, Urine; conditions: dog, in vivo
[21] = system: Canis familiaris; experiment: Tested for the diuretic activity by measuring the urinary volume after peroral administering 102 uM/Kg of drug in dogs; assay type: ADME, organism-based, Canis lupus familiaris, Urine; conditions: dog, in vivo, po
[22] = system: Rattus norvegicus; experiment: Tested for the diuretic activity by measuring the urinary volume after peroral administering 102 uM/Kg of drug in rats; assay type: ADME, organism-based, Urine; conditions: in vivo, po
[23] = system: Canis familiaris; experiment: Tested for the diuretic activity by measuring the urinary volume after intravenous administering 3.03 uM/Kg of drug in dogs; assay type: ADME, organism-based, Canis lupus familiaris, Urine; conditions: dog, in vivo
[24] = system: Canis familiaris; experiment: Tested for the diuretic activity by measuring the urinary volume after intravenous administering 30.3 uM/Kg of drug in dogs; assay type: ADME, organism-based, Canis lupus familiaris, Urine; conditions: dog, in vivo
[25] = system: Canis familiaris; experiment: Tested for the diuretic activity by measuring the urinary volume after intravenous administering 34.1 uM/Kg of drug in dogs; assay type: ADME, organism-based, Canis lupus familiaris, Urine; conditions: dog, in vivo
[26] = organism: Canis familiaris; experiment: Systemic cardio vascular Hemodynamics of cardiac index was measured in Beagle dogs after giving the dose of MNX plus the drug; assay type: functional, Canis lupus familiaris, Heart
[27] = organism: Canis familiaris; experiment: Systemic cardio vascular Hemodynamics of cardiac index was measured in Beagle dogs in pretreatment control group; assay type: functional, Canis lupus familiaris, Heart
[28] = organism: Canis familiaris; experiment: Systemic cardio vascular Hemodynamics of mean arterial pressure was measured in Beagle dogs after giving the dose of MNX plus the drug; assay type: functional, Canis lupus familiaris, Heart
[29] = organism: Canis familiaris; experiment: Systemic cardio vascular Hemodynamics of mean arterial pressure was measured in Beagle dogs in pretreatment control group; assay type: functional, Canis lupus familiaris, Heart
[30] = organism: Canis familiaris; experiment: Systemic cardio vascular Hemodynamics of stroke index was measured in Beagle dogs after giving the dose of MNX; assay type: functional, Canis lupus familiaris, Heart
[31] = organism: Canis familiaris; experiment: Systemic cardio vascular Hemodynamics of stroke index was measured in Beagle dogs in pretreatment control group; assay type: functional, Canis lupus familiaris, Heart
[32] = organism: Canis familiaris; experiment: Systemic cardio vascular Hemodynamics of total peripheral resistance was measured in Beagle dogs after giving the dose of MNX plus the drug; assay type: functional, Canis lupus familiaris, Heart
[33] = organism: Canis familiaris; experiment: Systemic cardio vascular Hemodynamics of total peripheral resistance was measured in Beagle dogs in pretreatment control group; assay type: functional, Canis lupus familiaris, Heart
[34] = organism: Canis familiaris; experiment: Tissue vascular resistance of large intestine was measured in Beagle dogs after giving the dose of MNX; assay type: functional, Canis lupus familiaris
[35] = organism: Canis familiaris; experiment: Tissue vascular resistance of large intestine was measured in Beagle dogs after giving the dose of MNX plus the drug; assay type: functional, Canis lupus familiaris
[36] = organism: Canis familiaris; experiment: Tissue vascular resistance of large intestine was measured in Beagle dogs before treatment; assay type: functional, Canis lupus familiaris
[37] = organism: Canis familiaris; experiment: Tissue vascular resistance of left ventricle was measured in Beagle dogs before treatment; assay type: functional, Canis lupus familiaris, Heart left ventricle
[38] = organism: Canis familiaris; experiment: Tissue vascular resistance of left ventricle was measured in Beagle dogs before treatment after giving the dose of MNX plus the drug; assay type: functional, Canis lupus familiaris, Heart left ventricle
[39] = organism: Canis familiaris; experiment: Tissue vascular resistance of pancreas was measured in Beagle dogs after giving the dose of MNX; assay type: functional, Canis lupus familiaris
[40] = organism: Canis familiaris; experiment: Tissue vascular resistance of pancreas was measured in Beagle dogs after giving the dose of MNX plus the drug; assay type: functional, Canis lupus familiaris
[41] = organism: Canis familiaris; experiment: Tissue vascular resistance of pancreas was measured in Beagle dogs before treatment; assay type: functional, Canis lupus familiaris
[42] = organism: Canis familiaris; experiment: Tissue vascular resistance of right atrium was measured in Beagle dogs after giving the dose of MNX plus the drug; assay type: functional, Canis lupus familiaris, Cardiac atrium
[43] = system: Rattus norvegicus; experiment: Ratio of Total electrolytic excretion of sodium and potassium in urine of rats after intravenous administration of 3.03 uM/Kg of drug; assay type: ADME, organism-based; conditions: in vivo
[44] = system: Rattus norvegicus; experiment: Ratio of Total electrolytic excretion of sodium and potassium in urine of rats after intravenous administration of 30.3 uM/Kg of drug; assay type: ADME, organism-based; conditions: in vivo
[45] = system: Rattus norvegicus; experiment: Ratio of Total electrolytic excretion of sodium and potassium in urine of rats after intravenous administration of 34.1 uM/Kg of drug; assay type: ADME, organism-based; conditions: in vivo
[46] = system: Rattus norvegicus; experiment: Ratio of Total electrolytic excretion of sodium and potassium in urine of rats after intravenous administration of 9.09 uM/Kg of drug; assay type: ADME, organism-based; conditions: in vivo
[47] = system: Rattus norvegicus; experiment: Ratio of Total electrolytic excretion of sodium and potassium in urine of rats after peroral administration of 341 uM/Kg of drug; assay type: ADME, organism-based; conditions: in vivo, po
[48] = system: Rattus norvegicus; experiment: Ratio of Total electrolytic excretion of sodium and potassium in urine of rats after peroral administration of 50.8 uM/Kg of drug; assay type: ADME, organism-based; conditions: in vivo, po
[49] = system: Rattus norvegicus; experiment: Ratio of Total electrolytic excretion of sodium and potassium in urine of rats after peroral administration of 68.1 uM/Kg of drug; assay type: ADME, organism-based; conditions: in vivo, po
[50] = system: Rattus norvegicus; experiment: Ratio of Total electrolytic excretion of sodium and potassium in urine of rats after peroral administration of 34.1 uM/Kg of drug; assay type: ADME, organism-based; conditions: in vivo, po
[51] = system: Canis familiaris; experiment: Total electrolytic excretion of chlorine in urine of dogs after intravenous administration of 30.3 uM/Kg of drug; assay type: ADME, organism-based, Canis lupus familiaris; conditions: dog, in vivo
[52] = system: Rattus norvegicus; experiment: Tested for the diuretic activity by measuring the urinary volume after peroral administering 341 uM/Kg of drug in rats; assay type: ADME, organism-based, Urine; conditions: in vivo, po
[53] = system: Canis familiaris; experiment: Tested for the diuretic activity by measuring the urinary volume after peroral administering 34.1 uM/Kg of drug in dogs; conditions: dog, in vivo, po

C1CCC(N=C(NC2CCCCC2)N2CCOCC2)CC1
Excretion K+ [1]: 1.6 m equiv | Excretion K+ [2]: 1.7 m equiv | Excretion Cl- [3]: 1.64 m equiv | Excretion Na+ [4]: 11.5 m equiv | Excretion Na+ [5]: 22.5 m equiv | Excretion Na+ [6]: 14 m equiv | Excretion Na+ [7]: 1.56 m equiv | Excretion K+ [8]: 0.34 m equiv | Excretion K+ [9]: 1.9 m equiv | Excretion K+ [10]: 2 m equiv | Excretion Cl- [11]: 9.8 m equiv | Excretion Cl- [12]: 12.3 m equiv | Excretion Cl- [13]: 9.6 m equiv | Excretion Cl- [14]: 9.4 m equiv | Excretion Na+ [15]: 13.1 m equiv | V [16]: 77 mL | V [17]: 6.6 mL | V [18]: 62 mL | Excretion Na+ [19]: 1.73 m equiv | V [20]: 87 mL | V [21]: 154 mL | V [22]: 10 mL | V [23]: 64 mL | V [24]: 114 mL | V [25]: 132 mL | CI [26]: 138 mL/min/kg | CI [27]: 186 mL/min/kg | MAP [28]: 118 mmHg | MAP [29]: 101 mmHg | SI [30]: 1.9 ml beat-1 kg-1 | SI [31]: 2.2 ml beat-1 kg-1 | TPR [32]: 0.91 mmHg·min·kg/mL | TPR [33]: 0.56 mmHg·min·kg/mL | TVR [34]: 116 mmHg·min·g/mL | TVR [35]: 340 mmHg·min·g/mL | TVR [36]: 264 mmHg·min·g/mL | TVR [37]: 112 mmHg·min·g/mL | TVR [38]: 100 mmHg·min·g/mL | TVR [39]: 43 mmHg·min·g/mL | TVR [40]: 219 mmHg·min·g/mL | TVR [41]: 118 mmHg·min·g/mL | TVR [42]: 573 mmHg·min·g/mL | Ratio [43]: 8.4 | Ratio [44]: 8.6 | Ratio [45]: 17.4 | Ratio [46]: 8.7 | Ratio [47]: 5 | Ratio [48]: 6.1 | Ratio [49]: 8.6 | Ratio [50]: 3.6 and 9.6 and 9.1 | Excretion Cl- [51]: 12.5 m equiv | V [52]: 10.2 mL | V [53]: 81 mL
